One data set concerns the target FAAL28 (Mycobacterium tuberculosis, UniProt P9WQ59). The experiment in a line: Coupled continuous enzyme kinetic assay. Type of data set: biochemical. Particulars: for Ki^app FAAL28: apparent Ki, Morrison equation, 33 μM tetradecanoic acid.
For the next data set, the target named is FACL19 (Mycobacterium tuberculosis, UniProt P9WQ51). Nature of the data set: Coupled continuous enzyme kinetic assay. Particulars: for Ki^app FACL19: apparent Ki, Morrison equation, 250 μM dodecanoic acid. Type of data set: biochemical.
The next data set concerns Mtb H37Rv. The experiment in a line: Minimum inhibitory concentration, broth microdilution, whole-cell activity. Type of data set: cell-based, Mycobacterium tuberculosis. Particulars: for MIC: Mycobacterium tuberculosis, H37RV; for MIC GAST: Mtb H37Rv, GAST medium, MIC = >99% inhibition of cell growth. (In general: In broth dilution the organism is exposed to a series of concentrations in liquid medium.)

A further data set concerns Mtb. Particulars: cited from earlier work.
Data set [1] has as its system MDR-TB and XDR-TB strains. Nature of the data set: microbe, parasite or virus in culture. Type of data set: cell-based. Particulars: Mycobacterium tuberculosis.
The subject of a further data set is Vero cells. The experiment in a line: Cytotoxicity, MTT assay. Particulars: read-out: Cytotox IC50, Vero monkey cells, 72 h.
Setting [2] is: read-out: MIC 7H9, Mtb H37Rv, 7H9 medium.
Setting [3] is: read-out: MIC 7H9/palmitate, Mtb H37Rv, 7H9/palmitate medium.
Setting [4] is: read-out: MICs against MDR and XDR Mtb panel in 7H9 medium.
The mark [5] stands for this setting: read-out: MICs against MDR-TB and XDR-TB panel in both media.

Structures are written as SMILES. Converted amounts (≈) assume the structure as drawn. Like-named read-outs stand apart in the source and are kept apart here.

What is called Ki is a dissociation constant, usually derived from enzyme kinetics or from competition with a known ligand. What is called IC50 is the point on the concentration scale where inhibition reaches its midpoint.

Sequence of FACL19 (P9WQ51 whole entry): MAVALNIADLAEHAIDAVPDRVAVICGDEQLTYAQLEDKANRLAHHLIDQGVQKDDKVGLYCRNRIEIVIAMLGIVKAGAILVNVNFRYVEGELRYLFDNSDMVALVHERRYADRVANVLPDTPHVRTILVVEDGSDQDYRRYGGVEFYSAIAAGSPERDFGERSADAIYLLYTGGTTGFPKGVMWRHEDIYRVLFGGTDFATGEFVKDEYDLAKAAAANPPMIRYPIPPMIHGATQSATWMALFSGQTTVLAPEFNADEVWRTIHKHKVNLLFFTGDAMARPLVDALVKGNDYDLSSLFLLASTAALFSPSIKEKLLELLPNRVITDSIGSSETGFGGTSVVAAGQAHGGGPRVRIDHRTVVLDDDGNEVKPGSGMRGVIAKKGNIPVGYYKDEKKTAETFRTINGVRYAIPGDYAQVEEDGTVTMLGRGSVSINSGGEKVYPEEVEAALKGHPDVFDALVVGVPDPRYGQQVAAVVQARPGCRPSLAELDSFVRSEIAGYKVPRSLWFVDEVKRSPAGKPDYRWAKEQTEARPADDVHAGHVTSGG
Sequence of FAAL28 (P9WQ59 whole entry): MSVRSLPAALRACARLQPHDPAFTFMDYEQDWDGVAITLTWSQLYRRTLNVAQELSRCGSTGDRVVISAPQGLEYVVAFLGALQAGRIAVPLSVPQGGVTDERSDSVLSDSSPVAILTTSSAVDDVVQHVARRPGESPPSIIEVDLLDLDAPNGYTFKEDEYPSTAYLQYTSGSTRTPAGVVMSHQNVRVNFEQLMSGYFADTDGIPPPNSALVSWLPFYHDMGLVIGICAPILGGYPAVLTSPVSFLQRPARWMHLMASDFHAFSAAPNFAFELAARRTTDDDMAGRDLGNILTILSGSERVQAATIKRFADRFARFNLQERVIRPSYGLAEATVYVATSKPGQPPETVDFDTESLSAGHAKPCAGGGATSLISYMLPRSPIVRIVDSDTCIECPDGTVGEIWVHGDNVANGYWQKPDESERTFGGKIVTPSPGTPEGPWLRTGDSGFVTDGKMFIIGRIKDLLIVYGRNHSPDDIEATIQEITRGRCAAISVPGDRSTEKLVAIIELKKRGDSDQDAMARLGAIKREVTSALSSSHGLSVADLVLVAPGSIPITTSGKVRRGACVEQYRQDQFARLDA

`CCCCCCCCCC[C@H](C)C(=O)NS(=O)(=O)OC[C@H]1O[C@@H](n2cnc3c(N)ncnc32)[C@H](O)[C@@H]1O` [Compound 34, 5′-O-{N-[(S)-2-Methylodecanoyl]sulfamoyl}adenosine]: the Ki at FAAL28 and at FACL19 was greater than 100 µM each time. Also, the MIC with Mtb H37Rv (setting [2]) and in the data set on Mtb H37Rv (setting [3]) was greater than 100 µM each time.
In the case of `CCCCCCCCCCC(C)(C)C(=O)NS(=O)(=O)OC[C@H]1O[C@@H](n2cnc3c(N)ncnc32)[C@H](O)[C@@H]1O` [Compound 35, 5′-O-[N-(2,2-Dimethyldodecanoyl)sulfamoyl]adenosine], the figures for the Ki on FAAL28 and at FACL19 were greater than 100 µM and 54.7 µM, respectively. The MIC with Mtb H37Rv (setting [2]) and in the data set on Mtb H37Rv (setting [3]) was greater than 100 µM each time.
Turning to `CCCCCCCCCCCC(=O)NS(=O)(=O)OC[C@H]1O[C@@H](n2cnc3c(N)ncnc32)[C@H](O)[C@@H]1O` [Compound 9, 5′-O-[N-(Dodecanoyl)sulfamoyl]adenosine], in the data set with Mtb, the “MIC against Mtb” value is 100 µM (≈ 52.9 µg/mL). The MIC in data set [1] (setting [4]) was 3.13 to 12.5 µM (≈ 1.65 to 6.61 µg/mL). Further, in the data set on Mtb H37Rv, the “MIC GAST” value was in the range of 0.19 to 0.39 µM.
The molecule `CCCCCCCCCCCCCCCC(=O)NS(=O)(=O)OC[C@H]1O[C@@H](n2cnc3c(N)ncnc32)[C@H](O)[C@@H]1O` [Compound 18, 5′-O-[N-(Palmitoyl)sulfamoyl]adenosine] yielded an inhibition constant (Ki) on FACL19 of 3.2 µM.
As for `CCCCCCCCCC[C@@H](C)C(=O)NS(=O)(=O)OC[C@H]1O[C@@H](n2cnc3c(N)ncnc32)[C@H](O)[C@@H]1O` [Compound 33, 5′-O-{N-[(R)-2-Methyldodecanoyl]sulfamoyl}adenosine], the Ki at FAAL28 and at FACL19 was greater than 100 µM throughout. In addition, the MIC with Mtb H37Rv (setting [2]) and in the data set on Mtb H37Rv (setting [3]) was greater than 100 µM each time.
Take `CCCCCCCCC/C=C/C(=O)NS(=O)(=O)OC[C@H]1O[C@@H](n2cnc3c(N)ncnc32)[C@H](O)[C@@H]1O` [Compound 23, 5′-O-{N-[(E)-Dodec-2-enoyl]sulfamoyl}adenosine]: the MIC in data set [1] (setting [5]) is 3.13 to 12.5 µM (≈ 1.65 to 6.58 µg/mL).
Turning to `Nc1ncnc2c1ncn2[C@@H]1O[C@H](CNS(=O)(=O)OCCCCCCCCCCCOc2ccccc2)[C@@H](O)[C@H]1O` [Compound 93, 5′-Deoxy-5′-{[(11-phenoxyundecyloxy)sulfonyl]amino}adenosine], the “Ki^app FAAL28” value on FAAL28 is recorded as “ablated biochemical inhibition”.
Consider `Nc1ncnc2c1ncn2[C@@H]1O[C@H](CNS(=O)(=O)NC(=O)CCCCCCCCCCOc2ccccc2)[C@@H](O)[C@H]1O` [Compound 83, 5′-deoxy-5′-{N-[(11-Phenoxyundecanoyl)sulfamoyl]amino} adenosine], for which the “fold decrease in potency for FAAL28 relative to 32” value at FAAL28 came to 4 fold. Moreover, the “Ki^app FACL19” value at FACL19 was “no inhibition”.
As for `COC(=O)CCCCCCCCCCC(=O)NS(=O)(=O)OC[C@H]1O[C@@H](n2cnc3c(N)ncnc32)[C@H](O)[C@@H]1O` [Compound 30, 5′-O-[N-(12-Methoxy-12-oxododecanoyl)sulfamoyl]adenosine], the Ki at FAAL28 and on FACL19 was greater than 100 µM in each case. Further, the “MIC GAST” value in the data set on Mtb H37Rv turned out to be 3.13 µM (≈ 1.79 µg/mL). The MIC was 100 µM (≈ 57.3 µg/mL) in the data set on Mtb H37Rv (setting [2]) and greater than 100 µM in the data set on Mtb H37Rv (setting [3]).
With `Nc1ncnc2c1ncn2[C@@H]1O[C@H](COS(=O)(=O)NC(=O)CCCCCCCCCCOc2ccccc2)[C@@H](O)[C@H]1O` [Compound 32, 5′-O-[N-(11-Phenoxyundecanoyl)sulfamoyl]adenosine], the “selectivity for FAAL28 over FACL19” value at FAAL28 (ratio of apparent Ki values) is on record as “greater than 142 fold”. Moreover, the “Ki^app FACL19” value on FACL19 was “completely inactive”. Further, in data set [1] (setting [5]), the MIC lay within 3.13 to 12.5 µM (≈ 1.9 to 7.58 µg/mL).
Take `NCCCCCCCCCCCC(=O)NS(=O)(=O)OC[C@H]1O[C@@H](n2cnc3c(N)ncnc32)[C@H](O)[C@@H]1O` [Compound 29, 5′-O-[N-(12-Aminododecanoyl)sulfamoyl]adenosine]: the MIC in the data set with Mtb H37Rv (setting [3]) was 12.5 to 25 µM (≈ 6.8 to 13.6 µg/mL).
As to `CCCCCCCCCCCCCCCCCCCC(=O)NS(=O)(=O)OC[C@H]1O[C@@H](n2cnc3c(N)ncnc32)[C@H](O)[C@@H]1O` [Compound 20, 5′-O-[N-(Icosanoyl)sulfamoyl]adenosine], the IC50 in the data set on Vero cells worked out at 0.1 µM.
Regarding `CCCCCCCCCOCC(=O)NS(=O)(=O)OC[C@H]1O[C@@H](n2cnc3c(N)ncnc32)[C@H](O)[C@@H]1O` [Compound 36, 5′-O-[N-2-(Nonyloxy)acetylsulfamoyl]adenosine], in the data set with Mtb H37Rv, the “MIC GAST” value fell in the range of 0.098 to 0.19 µM. Moreover, the MIC in the data set on Mtb H37Rv (setting [3]) was 25 to 50 µM (≈ 13.3 to 26.5 µg/mL).
Consider `CCCCC/C=C\CCCC(=O)NS(=O)(=O)OC[C@H]1O[C@@H](n2cnc3c(N)ncnc32)[C@H](O)[C@@H]1O` [Compound 25, 5′-O-{N-[(Z)-Undec-5-enoyl]sulfamoyl}adenosine], for which the Ki on FAAL28 and at FACL19 was greater than 100 µM in each case. Also, the MIC in the data set with Mtb H37Rv (setting [2]) and in the data set on Mtb H37Rv (setting [3]) was 100 µM (≈ 51.3 µg/mL) in each case.
For `C[C@H](CCC(=O)NS(=O)(=O)OC[C@H]1O[C@@H](n2cnc3c(N)ncnc32)[C@H](O)[C@@H]1O)[C@H]1CC[C@H]2[C@@H]3CC[C@@H]4C[C@H](O)CC[C@]4(C)[C@H]3CC[C@]12C` [Compound 11, reference compound], the “MIC against Mtb” value in the data set with Mtb is 50 µM (≈ 35.2 µg/mL).
With `Nc1ncnc2c1ncn2[C@@H]1O[C@H](COS(=O)(=O)NCCCCCCCCCCCOc2ccccc2)[C@@H](O)[C@H]1O` [Compound 89, 5′-O-[N-(11-Phenoxyundecyl)sulfamoyl]adenosine], at FAAL28, the “Ki^app FAAL28” value was “ablated biochemical inhibition”.
For the molecule `Nc1ncnc2c1ncn2[C@@H]1O[C@H](COS(=O)(=O)NC(=O)CCCCCCCCCOc2ccccc2)[C@@H](O)[C@H]1O` [Compound 38, 5′-O-[N-(10-Phenoxydecanoyl)sulfamoyl]adenosine], on FAAL28, the “fold decrease in potency for FAAL28 relative to 32” value is 10 fold.
In the case of `CCCCCCCCCCCCCC(=O)NS(=O)(=O)OC[C@H]1O[C@@H](n2cnc3c(N)ncnc32)[C@H](O)[C@@H]1O` [Compound 17, 5′-O-[N-(Tetradecanoyl)sulfamoyl]adenosine], the MIC in data set [1] (setting [4]) is 3.13 to 12.5 µM (≈ 1.74 to 6.96 µg/mL).
As for `[N-]=[N+]=NCCCCCCCCCCCC(=O)NS(=O)(=O)OC[C@H]1O[C@@H](n2cnc3c(N)ncnc32)[C@H](O)[C@@H]1O` [Compound 28, 5′-O-[N-(12-Azidododecanoyl)sulfamoyl]adenosine], the “MIC GAST” value in the data set with Mtb H37Rv is 0.098 to 3.13 µM. Further, the MIC in the data set with Mtb H37Rv (setting [2]) is 12.5 to 25 µM (≈ 7.12 to 14.2 µg/mL).
For `CCCCCCCCC[C@@H]1C[C@@H]1C(=O)NS(=O)(=O)OC[C@H]1O[C@@H](n2cnc3c(N)ncnc32)[C@H](O)[C@@H]1O` [Compound 26, 5′-O-{N-[(1S,2R)-2-Nonylcyclopropanecarbonyl]sulfamoyl} adenosine], the “Ki^app FAAL28” value on FAAL28 is “weak inhibition”.
On to `Nc1ncnc2c1ncn2[C@@H]1O[C@H](COS(=O)(=O)NC(=O)CCCCCCCCCCC(=O)O)[C@@H](O)[C@H]1O` [Compound 31, 5′-O-[N-(11-Carboxyundecanoyl)sulfamoyl]adenosine], for which the inhibitory constant (Ki) at FAAL28 and on FACL19 was greater than 100 µM in each case. Also, the MIC in the data set with Mtb H37Rv (setting [2]) and in the data set with Mtb H37Rv (setting [3]) was greater than 100 µM each time.
